This note sets out measurements from patent publication US9120756B2, “Substituted phenylureas and phenylamides as vanilloid receptor ligands” (Gruenenthal GmbH, priority 2009, dated 2015).

A word on the inhibition: it is the drop in the measured response relative to a control, in per cent. The IC50 is the concentration that inhibits the measured activity by half. What is called Ki is the dissociation constant of the complex between target and ligand, obtained from inhibition or displacement.

Common to all, as to format: cell-based
Assay [1] deals with rat-species vanilloid receptor 1 (VR1/TRPV1) (Rattus norvegicus (Rat), UniProt O35433). Put plainly: FLIPR Ca2+ influx assay on rat dorsal root ganglia cells, capsaicin stimulus (method I). The conditions noted are these: for Ki: capsaicin (Cap). Here is the method:
The agonistic or antagonistic effect of the substances to be tested on the rat-species vanilloid receptor 1 (VR1/TRPV1) can be determined using the following assay. In this assay, the influx of Ca^2+ through the receptor channel is quantified with the aid of a Ca^2+-sensitive dye (type Fluo-4, Molecular Probes Europe BV, Leiden, the Netherlands) in a fluorescent imaging plate reader (FLIPR, Molecular Devices, Sunnyvale, USA).
Complete medium: 50 ml HAMS F12 nutrient mixture (Gibco Invitrogen GmbH, Karlsruhe, Germany) with
10% by volume of FCS (foetal calf serum, Gibco Invitrogen GmbH, Karlsruhe, Germany, heat-inactivated);
2 mM L-glutamine (Sigma, Munich, Germany);
1% by weight of AA solution (antibiotic/antimyotic solution, PAA, Pasching, Austria) and 25 ng/ml NGF medium (2.5 S, Gibco Invitrogen GmbH, Karlsruhe, Germany)
Cell culture plate: Poly-D-lysine-coated, black 96-well plates having a clear base (96-well black/clear plate, BD Biosciences, Heidelberg, Germany) are additionally coated with laminin (Gibco Invitrogen GmbH, Karlsruhe, Germany), the laminin being diluted with PBS (Ca—Mg-free PBS, Gibco Invitrogen GmbH, Karlsruhe, Germany) to a concentration of 100 μg/ml. Aliquots having a laminin concentration of 100 μg/ml are removed and stored at −20° C. The aliquots are diluted with PBS in a ratio of 1:10 to 10 μg/ml of laminin and respectively 50 μL of the solution are pipetted into a recess in the cell culture plate. The cell culture plates are incubated for at least two hours at 37° C., the excess solution is removed by suction and the recesses are each washed twice with PBS. The coated cell culture plates are stored with excess PBS which is not removed until just before the feeding of the cells.
The vertebral column is removed from decapitated rats and placed immediately into cold HBSS buffer (Hank's buffered saline solution, Gibco Invitrogen GmbH, Karlsruhe, Germany), i.e. buffer located in an ice bath, mixed with 1% by volume (percent by volume) of an AA solution (antibiotic/antimyotic solution, PAA, Pasching, Austria). The vertebral column is cut longitudinally and removed together with fasciae from the vertebral canal. Subsequently, the dorsal root ganglia (DRG) are removed and again stored in cold HBSS buffer mixed with 1% by volume of an AA solution. The DRG, from which all blood remnants and spinal nerves have been removed, are transferred in each case to 500 μL of cold type 2 collagenase (PAA, Pasching, Austria) and incubated for 35 minutes at 37° C. After the addition of 2.5% by volume of trypsin (PAA, Pasching, Austria), incubation is continued for 10 minutes at 37° C. After complete incubation, the enzyme solution is carefully pipetted off and 500 μL of complete medium are added to each of the remaining DRG. […] The contents of each Falcon tube are respectively filtered through a 70 μm Falcon filter element and centrifuged for 10 minutes at 1,200 rpm and RT. The resulting pellet is respectively taken up in 250 μL of complete medium and the cell count is determined.
The number of cells in the suspension is set to 3×10^5 per ml and 150 μL of this suspension are in each case introduced into a recess in the cell culture plates coated as described hereinbefore. […] Subsequently, the cells are loaded with 2 μM of Fluo-4 and 0.01% by volume of Pluronic F127 (Molecular Probes Europe BV, Leiden, the Netherlands) in HBSS buffer (Hank's buffered saline solution, Gibco Invitrogen GmbH, Karlsruhe, Germany) for 30 min at 37° C., washed 3 times with HBSS buffer and after further incubation for 15 minutes at RT used for Ca^2+ measurement in a FLIPR assay. The Ca^2+-dependent fluorescence is in this case measured before and after the addition of substances (λex=488 nm, λem=540 nm). Quantification is carried out by measuring the highest fluorescence intensity (FC, fluorescence counts) over time.
The FLIPR protocol consists of 2 substance additions.

Assay [2] deals with T1, hVR1 (Homo sapiens (Human), UniProt Q8NER1). Briefly: FLIPR assay human VR1, 45° C. stimulus. Also on record: key to IC50 (human being) 45° C. column: result in words (AG): AG=agonist; pAG=partial agonist; NE=no effect. The conditions noted are these: for IC50: read-out: IC50 (human being) [nM], 45° C. The text has this: The agonistic or antagonistic effect of the substances to be tested on the vanilloid receptor 1 (VR1) can also be determined using the following assay. In this assay, the influx of Ca^2+ through the channel is quantified with the aid of a Ca^2+-sensitive dye (type Fluo-4, Molecular Probes Europe BV, Leiden, the Netherlands) in a fluorescent imaging plate reader (FLIPR, Molecular Devices, Sunnyvale, USA).
Chinese hamster ovary cells (CHO K1 cells, European Collection of Cell Cultures (ECACC) United Kingdom) are stably transfected with the VR1 gene. For functional testing, these cells are plated out on poly-D-lysine-coated black 96-well plates having a clear base (BD Biosciences, Heidelberg, Germany) at a density of 25,000 cells/well. The cells are incubated overnight at 37° C. and 5% CO2 in a culture medium (Ham's F12 nutrient mixture, 10% by volume of FCS (foetal calf serum), 18 μg/ml of L-proline). The next day the cells are incubated with Fluo-4 (Fluo-4 2 μM, 0.01% by volume of Pluronic F127, Molecular Probes in HBSS (Hank's buffered saline solution), Gibco Invitrogen GmbH, Karlsruhe, Germany) for 30 minutes at 37° C. Subsequently, the plates are washed three times with HBSS buffer and after further incubation for 15 minutes at RT used for Ca^2+ measurement in a FLIPR assay. The Ca^2+-dependent fluorescence is measured before and after the addition of the substances to be tested (λex wavelength=488 nm, λem=540 nm). Quantification is carried out by measuring the highest fluorescence intensity (FC, fluorescence counts) over time.
The FLIPR protocol consists of 2 substance additions. […]
Desensitising agonists and antagonists led to suppression of the Ca^2+ influx.
Ki values for the test substances were obtained by conversion by means of the Cheng-Prusoff equation (Cheng, Prusoff; Biochem. Pharmacol. 22, 3099-3108, 1973).

The target in assay [3] is T1, hVR1. Put plainly: FLIPR assay hVR1, after pH stimulus. Also on record: key to IC50 (human being) hVR1 pH: result in words (NE / AG): AG=agonist; pAG=partial agonist; NE=no effect. The conditions noted are these: for inhibition at 10 µM: read-out: IC50 (human being) hVR1 pH: inhibition (as a percentage) @ 10 μM, inhibition determined at 10 μM; for IC50: read-out: IC50 (human being) hVR1 [nM], pH. Here is the method: (§1) In this assay, the influx of Ca^2+ through the channel is quantified with the aid of a Ca^2+-sensitive dye (type Fluo-4, Molecular Probes Europe BV, Leiden, the Netherlands) in a fluorescent imaging plate reader (FLIPR, Molecular Devices, Sunnyvale, USA). Chinese hamster ovary cells (CHO K1 cells, European Collection of Cell Cultures (ECACC) United Kingdom) are stably transfected with the VR1 gene. For functional testing, these cells are plated out on poly-D-lysine-coated black 96-well plates having a clear base (BD Biosciences, Heidelberg, Germany) at a density of 25,000 cells/well. […] Subsequently, the plates are washed three times with HBSS buffer and after further incubation for 15 minutes at RT used for Ca^2+ measurement in a FLIPR assay. […] Quantification is carried out by measuring the highest fluorescence intensity (FC, fluorescence counts) over time. The FLIPR protocol consists of 2 substance additions. […] Desensitising agonists and antagonists led to suppression of the Ca^2+ influx. […] Ki values for the test substances were obtained by conversion by means of the Cheng-Prusoff equation (Cheng, Prusoff; Biochem. Pharmacol. 22, 3099-3108, 1973).

Assay [4] has as its target T1, hVR1. Briefly: FLIPR Ca2+ influx assay on CHO K1 cells transfected with the VR1 gene, capsaicin stimulus (method II). Also on record: key to Ki (human being) Cap: result in words (NE / AG): AG=agonist; pAG=partial agonist; NE=no effect. The conditions noted are these: for Ki: capsaicin (Cap), read-out: Ki (human being) [nM] Cap.
Assay [5] deals with T1, hVR1. Briefly: FLIPR assay human VR1, NADA (N-arachidonoyl dopamine) stimulus. Also on record: key: AG=agonist; pAG=partial agonist; NE=no effect. On the procedure:
as §1

T1 sequence (Q8NER1 whole entry): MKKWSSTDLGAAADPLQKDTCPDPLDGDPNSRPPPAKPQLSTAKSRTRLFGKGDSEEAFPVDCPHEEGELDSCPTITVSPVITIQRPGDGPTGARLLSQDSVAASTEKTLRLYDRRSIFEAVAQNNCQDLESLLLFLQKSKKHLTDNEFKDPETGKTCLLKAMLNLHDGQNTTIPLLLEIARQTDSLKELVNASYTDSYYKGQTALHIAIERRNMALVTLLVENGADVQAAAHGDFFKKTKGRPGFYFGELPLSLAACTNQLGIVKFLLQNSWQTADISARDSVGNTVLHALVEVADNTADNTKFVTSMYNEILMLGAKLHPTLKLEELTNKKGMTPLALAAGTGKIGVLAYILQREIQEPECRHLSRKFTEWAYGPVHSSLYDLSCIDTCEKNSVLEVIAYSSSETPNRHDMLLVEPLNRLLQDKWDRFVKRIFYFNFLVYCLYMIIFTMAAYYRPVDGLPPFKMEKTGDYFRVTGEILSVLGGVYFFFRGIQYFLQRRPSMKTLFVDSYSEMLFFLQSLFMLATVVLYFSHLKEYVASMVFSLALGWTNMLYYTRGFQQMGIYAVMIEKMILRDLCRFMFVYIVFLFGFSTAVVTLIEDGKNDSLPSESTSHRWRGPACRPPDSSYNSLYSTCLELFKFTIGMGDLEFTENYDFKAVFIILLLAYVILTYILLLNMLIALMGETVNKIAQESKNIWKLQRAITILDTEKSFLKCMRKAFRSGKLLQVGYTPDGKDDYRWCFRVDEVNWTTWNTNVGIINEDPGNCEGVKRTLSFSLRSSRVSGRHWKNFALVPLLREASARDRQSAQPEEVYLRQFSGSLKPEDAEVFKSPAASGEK
rat-species vanilloid receptor 1 (VR1/TRPV1), sequence (O35433 whole entry): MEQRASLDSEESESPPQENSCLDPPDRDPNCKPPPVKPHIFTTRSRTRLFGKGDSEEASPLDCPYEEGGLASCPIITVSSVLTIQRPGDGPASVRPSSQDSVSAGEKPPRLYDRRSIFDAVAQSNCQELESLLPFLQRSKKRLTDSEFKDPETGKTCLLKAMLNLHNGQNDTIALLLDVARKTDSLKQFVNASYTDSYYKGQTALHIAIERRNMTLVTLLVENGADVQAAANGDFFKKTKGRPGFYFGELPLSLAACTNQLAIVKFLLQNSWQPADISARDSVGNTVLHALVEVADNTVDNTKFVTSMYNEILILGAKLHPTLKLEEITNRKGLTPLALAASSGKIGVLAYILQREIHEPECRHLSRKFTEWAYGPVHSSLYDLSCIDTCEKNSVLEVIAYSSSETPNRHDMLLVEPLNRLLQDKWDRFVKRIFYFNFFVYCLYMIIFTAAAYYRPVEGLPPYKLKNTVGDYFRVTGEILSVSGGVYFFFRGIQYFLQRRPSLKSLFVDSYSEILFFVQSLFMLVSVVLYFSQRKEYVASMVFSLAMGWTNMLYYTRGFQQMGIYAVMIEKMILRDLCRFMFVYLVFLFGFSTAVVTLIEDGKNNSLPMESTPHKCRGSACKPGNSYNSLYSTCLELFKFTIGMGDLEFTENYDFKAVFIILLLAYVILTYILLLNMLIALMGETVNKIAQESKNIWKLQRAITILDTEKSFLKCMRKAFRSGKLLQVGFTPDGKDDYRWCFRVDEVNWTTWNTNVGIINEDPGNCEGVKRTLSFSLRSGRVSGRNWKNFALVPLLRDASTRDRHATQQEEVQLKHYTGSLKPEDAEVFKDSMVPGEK

Regarding `CCCCCCn1nc(C(C)(C)C)cc1CNC(=O)C(C)c1ccc(NS(C)(=O)=O)c(F)c1` (stereo not shown) [Example 5, N-((3-tert-butyl-1-hexyl-1H-pyrazol-5-yl)methyl)-2-(3-fluoro-4-(methylsulphonamido)phenyl)propanamide], the inhibition at 1 µM in assay [1] (read-out: Ki (rat) Cap column: inhibition (as a percentage) @ 1 μM, capsaicin, inhibition determined at 1 μM) was 76%. For the same molecule, the half-maximal inhibitory concentration (IC50) on hVR1 [2] turned out to be 282 nM. The inhibition at 10 µM on hVR1 [3] worked out at 36%. In addition, the Ki on hVR1 [4] turned out to be 50.2 nM.
As for `CC(C(=O)NCc1cc(C(C)(C)C)nn1-c1cccc(Cl)c1)c1ccc(NS(C)(=O)=O)c(F)c1` (stereo not shown) [Example 16, N-((3-tert-butyl-1-(3-chlorophenyl)-1H-pyrazol-5-yl)methyl)-2-(3-fluoro-4-(methylsulphonamido)phenyl)propanamide], the inhibition at 0.625 µM at hVR1 [2] (inhibition determined at 0.625 μM, read-out: IC50 (human being) 45° C. column: inhibition (as a percentage) @ 0.625 μM) was 35%. Also, the “IC50 (human being) hVR1 pH: result in words (NE / AG)” value on hVR1 [3] is “NE”. Besides, at hVR1 [4], the Ki is 0.3 nM.
Turning to `CC(C(=O)NCc1cc(C(C)(C)C)nn1-c1ccc(F)c(Cl)c1)c1ccc(NS(C)(=O)=O)c(F)c1` (stereo not shown) [Example 18, N-((3-tert-butyl-1-(3-chloro-4-fluorophenyl)-1H-pyrazol-5-yl)methyl)-2-(3-fluoro-4-(methylsulphonamido)phenyl)propanamide], on hVR1 [2], the IC50 turned out to be 7 nM. The inhibition at 10 µM at hVR1 [3] was found to be 31%. Moreover, at hVR1 [4], the inhibition constant (Ki) was found to be 0.5 nM.
As for `CC(C(=O)NCc1cc(C(F)(F)F)nn1-c1ccc(Cl)cc1)c1ccc(NS(C)(=O)=O)c(F)c1` (stereo not shown) [Example 21, N-((1-(4-chlorophenyl)-3-(trifluoromethyl)-1H-pyrazol-5-yl)methyl)-2-(3-fluoro-4-(methylsulphonamido)phenyl)propanamide], the values for the Ki (in assay [1]; at hVR1 [4]) were 1.2 nM and 0.3 nM, respectively. For the same molecule, the IC50 worked out at 27 nM on hVR1 [2] and 179 nM at hVR1 [3].
The like results for `C[C@H](C(=O)NCc1cc(C(F)(F)F)nn1-c1ccc(Cl)cc1)c1ccc(NS(C)(=O)=O)c(F)c1` [Example 23, (S)-N-((1-(4-chlorophenyl)-3-(trifluoromethyl)-1H-pyrazol-5-yl)methyl)-2-(3-fluoro-4-(methylsulphonamido)phenyl)propanamide] were, in that order, 0.4 nM, 0.3 nM, 16.1 nM and 47.1 nM.
Consider `COc1cc(C(C)C(=O)NCc2cc(C(F)(F)F)nn2-c2cccc(Cl)c2)ccc1NS(C)(=O)=O` (stereo not shown) [Example 28, N-((1-(3-chlorophenyl)-3-(trifluoromethyl)-1H-pyrazol-5-yl)methyl)-2-(3-methoxy-4-(methylsulphonamido)phenyl)propanamide], for which the figures for the 50% inhibitory concentration (IC50) on hVR1 [2] and at hVR1 [3] were 665 nM and 16 nM, respectively. Moreover, at hVR1 [4], the inhibition constant (Ki) stood at 0.4 nM.
Turning to `CC(C(=O)NCc1cc(C(C)(C)C)nn1-c1cccc(Cl)c1)c1cc(F)c(NS(C)(=O)=O)c(F)c1` (stereo not shown) [Example 29, N-((3-tert-butyl-1-(3-chlorophenyl)-1H-pyrazol-5-yl)methyl)-2-(3,5-difluoro-4-(methylsulphonamido)phenyl)propanamide], on hVR1 [2] (read-out: IC50 (human being) 45° C. column: inhibition (as a percentage) @ 2 μM, inhibition determined at 2 μM), the inhibition at 2 µM was 34%. Also, at hVR1 [3], the inhibition at 10 µM worked out at 42%. Also, at hVR1 [4], the Ki was 1.2 nM.
Take `CC(C(=O)NCc1cc(C(C)(C)C)nn1-c1cccc(Cl)c1)c1ccc(S(=O)(=O)N(C)C)c(F)c1` (stereo not shown) [Example 49, N-((3-tert-butyl-1-(3-chlorophenyl)-1H-pyrazol-5-yl)methyl)-2-(4-(N,N-dimethylsulphamoyl)-3-fluorophenyl)propanamide]: the “Ki (human being) NADA column: result in words (AG)” value on hVR1 [5] was “AG”. Further, on hVR1 [2], the “IC50 (human being) 45° C. column: result in words (AG)” value is recorded as “AG”. Also, the “IC50 (human being) hVR1 pH: result in words (NE / AG)” value at hVR1 [3] is “AG”. Also, at hVR1 [4] (capsaicin), the “Ki (human being) Cap: result in words (NE / AG)” value is listed as “AG”.
Consider `CC(C(=O)NCc1cc(C(F)(F)F)nn1-c1cccc(Cl)c1)c1ccc(C(F)(F)F)c(F)c1` (stereo not shown) [Example 141, N-((1-(3-chlorophenyl)-3-(trifluoromethyl)-1H-pyrazol-5-yl)methyl)-2-(3-fluoro-4-(trifluoromethyl)phenyl)propanamide], for which the values for the inhibition constant Ki (in assay [1]; on hVR1 [4]) were 25.5 nM and 13.6 nM, respectively. Further, the inhibition at 2.5 µM at hVR1 [2] (inhibition determined at 2.5 μM, read-out: IC50 (human being) 45° C. column: inhibition (as a percentage) @ 2.5 μM) turned out to be 28%.
